These results are taken from ChEMBL document CHEMBL6182828, “Medicinal chemistry-based perspectives on thiophene and its derivatives: exploring structural insights to discover plausible druggable leads” (RSC Med Chem, 2025).

Values after ≈ are worked out from the molar mass of the structure shown.

Data set [1] has as its target Amine oxidase [flavin-containing] B (Homo sapiens, UniProt P27338). Put plainly: Inhibition of human recombinant MAO-B extracted from baculovirus infected in BTI-TN-5B1-4 insect cells incubated for 20 mins by Amplex Red reagent based fluorescence analysis. The format is cell-based.
A further data set has as its system A549. Nature of the data set: Growth inhibition of human A549 cells by SRB assay. It counts as functional. In general terms: In SRB staining, fixed cells bind dye roughly in proportion to their protein.
The next data set concerns Escherichia coli. Nature of the data set: Antimicrobial activity against Escherichia coli assessed as diameter of zone of inhibition. The format is functional.
Another data set concerns HONE1 cell line. Nature of the data set: Cytotoxicity against human HONE1 cell line assessed as reduction in cell growth incubated for 24 hrs by SRB assay. The format is toxicity, cell-based. The settings on record: HONE1, 24 h.
The test system of data set [2] is MCF7. Put plainly: Cytotoxicity against human MCF7 cells assessed as reduction in cell growth incubated for 24 hrs by SRB assay. The format is functional, cell-based. The settings on record: MCF7, 24 h.
The next data set has as its system DLD-1. Nature of the data set: Cytotoxicity against human DLD-1 cells assessed as reduction in cell growth incubated for 24 hrs by SRB assay. The format is functional, cell-based. Conditions: DLD-1, 24 h.
The next data set has as its system NUGC-3. Put plainly: Cytotoxicity against human NUGC-3 cells assessed as reduction in cell growth incubated for 24 hrs by SRB assay. It counts as functional, cell-based. The settings on record: NUGC-3, 24 h.
The subject of data set [3] is HepG2. Nature of the data set: Cytotoxicity against human HepG2 cells assessed as reduction in cell growth incubated for 24 hrs by SRB assay. It counts as functional, cell-based. The settings on record: HepG2, 24 h.
Data set [4] can be described thus: Cytotoxicity against human WI-38 cells assessed as reduction in cell growth incubated for 24 hrs by SRB assay. The format is toxicity, cell-based.
The test system of the next data set is HA22T cell line. Put plainly: Cytotoxicity against human HA22T cell line assessed as reduction in cell growth incubated for 24 hrs by SRB assay. The format is functional, cell-based.
Data set [5] deals with T1, Acetylcholinesterase (Homo sapiens, UniProt P22303). Nature of the data set: Inhibition of AChE (unknown origin).
In the next data set the target is Cholinesterase (Homo sapiens, UniProt P06276). Nature of the data set: Inhibition of BChE (unknown origin).
In a further data set the test system is Salmonella paratyphi. Put plainly: […] activity against Salmonella enterica subsp. enterica serovar Paratyphi A assessed as zone of inhibition at 100 ug/ml by cup-plate agar diffusion method. The format is functional. The settings on record: read-out: IZ.
The subject of another data set is Aspergillus niger. Nature of the data set: Antifungal activity against Aspergillus niger assessed as diameter of zone of inhibition at 100 ug/ml by cup-plate agar diffusion method. The format is functional. Conditions: read-out: IZ. A general note: A growth-free zone around the sample is the usual read-out of agar diffusion tests.
For data set [6], the system named is Bacillus subtilis. Nature of the data set: Antibacterial activity against Bacillus subtilis ATCC 6633 assessed as zone of inhibition. The format is functional.
The subject of data set [7] is Staphylococcus aureus. Put plainly: Antibacterial activity against Staphylococcus aureus assessed as zone of inhibition at 100 ug/ml by cup-plate agar diffusion method. It counts as functional. Conditions: read-out: IZ.
A further data set concerns SMMC-7721. Put plainly: cells. The settings on record: Homo sapiens, SMMC-7721, 72 h.
Data set [8] in a line: Inhibition of EGFR2 (unknown origin). Also noted: species or system Homo sapiens.
The next data set deals with MIA PaCa-2. Nature of the data set: Cytotoxicity against human MIA PaCa-2 cells. The format is functional, cell-based.
The nature of another data set: clinical. Conditions: human.
Data set [9] deals with MCF7. Put plainly: Cytotoxicity against human MCF7 cells assessed as reduction in cell viability. It counts as functional, cell-based.
Data set [10] in a line: Half life of compound. It counts as physicochemical.
In another data set the target is Beta-secretase 1 (Homo sapiens, UniProt P56817). Put plainly: Inhibition of human recombinant BACE1 expressed in HEK293 cells by FRET assay. It counts as cell-based.
A short description of data set [11]: Half life in human at 15 mg/kg, po. It counts as ADME, organism-based. Conditions: in vivo.
Data set [12] is described as follows: Half life in human at 0.7 mg/kg, po. The settings on record: in vivo.
A short description of data set [13]: Half life in po dosed human plasma. It counts as ADME, organism-based.
Another data set concerns OVCAR-8. Nature of the data set: Cytotoxicity against human OVCAR-8 cells assessed as reduction in cell growth incubated for 24 hrs by MTT assay. The format is functional, cell-based. The settings on record: OVCAR-8, 24 h. A general note: Tetrazolium dyes change colour on reduction, which living cells bring about.
The next data set deals with SF-295. Put plainly: Cytotoxicity against human SF-295 cells assessed as reduction in cell growth incubated for 24 hrs by MTT assay. It counts as functional, cell-based. The settings on record: SF-295, 24 h.
The subject of a further data set is HL-60. Nature of the data set: Cytotoxicity against human HL-60 cells assessed as reduction in cell growth incubated for 24 hrs by MTT assay. The settings on record: HL-60, 24 h. The format is functional, cell-based.
For another data set, the system named is HCT-116. Put plainly: Cytotoxicity against human HCT-116 cells assessed as reduction in cell growth incubated for 24 hrs by MTT assay. The settings on record: HCT-116, 24 h. It counts as functional, cell-based.
Data set [14] has as its system Rattus norvegicus. Put plainly: Anti-inflammatory activity against carrageenan-induced paw edema in Albino rat assessed as inhibition of paw edema at 50 mg/kg, po relative to control. The format is functional. Also on record: scale not given: the % may be the effect or the level left.
Data set [15] has as its system Rattus norvegicus. Nature of the data set: Anti-inflammatory activity against carrageenan-induced paw edema in Wistar rat assessed as inhibition of paw edema at 20 mg/kg, po by H and E staining based analysis relative to control. Also on record: scale not given: the % may be the effect or the level left. The format is functional.
For data set [16], the system named is Streptococcus pneumoniae. Put plainly: Antimicrobial activity against Streptococcus pneumoniae assessed as reduction in cell growth by XTT assay. The format is functional, organism-based.
Data set [17] concerns Staphylococcus aureus. Put plainly: Antimicrobial activity against Staphylococcus aureus assessed as reduction in cell growth by XTT assay. The format is functional, organism-based.
The nature of data set [18]: Half life in human at 6 mg/kg. The format is ADME, organism-based. The settings on record: in vivo.
Data set [19] in a line: Terminal half life in human plasma. It counts as ADME, cell-free. Conditions: read-out: beta t1/2 (converted).
For data set [20], the system named is HepG2. Put plainly: Antiproliferative activity against human HepG2 cells assessed as reduction in cell growth measured for 96 hrs by Neutral red uptake assay. Conditions: HepG2, 96 h. The format is functional, cell-based.
The test system of a further data set is Penicillium chrysogenum. Nature of the data set: Antifungal activity against Penicillium chrysogenum assessed as diameter of zone of inhibition at 100 ug/ml by cup-plate agar diffusion method. The settings on record: read-out: IZ. The format is functional.
Data set [21] deals with T1, Acetylcholinesterase. Nature of the data set: Inhibition of AChE (unknown origin) using acetylthiocholine iodide as substrate by Ellman's spectrophotometric analysis.
The nature of data set [22]: Elimination half life in human at 0.8 mg/kg, sc. It counts as ADME, organism-based. The settings on record: in vivo, read-out: LambdaZ (converted).
Data set [23] is described as follows: Terminal half life in human at 2.5 mg/kg, po. The format is ADME, organism-based. The settings on record: in vivo, read-out: beta t1/2 (converted).
A short description of data set [24]: Terminal half life in human. It counts as ADME. The settings on record: read-out: beta t1/2 (converted).
Data set [25] concerns Streptococcus pneumoniae. Nature of the data set: Antimicrobial activity against Streptococcus pneumoniae assessed as diameter of zone of inhibition by agar diffusion method. It counts as functional.
In data set [26] the test system is Bacillus subtilis. Nature of the data set: Antimicrobial activity against Bacillus subtilis assessed as diameter of zone of inhibition by agar diffusion method. The format is functional.

T1 sequence (P22303 whole entry): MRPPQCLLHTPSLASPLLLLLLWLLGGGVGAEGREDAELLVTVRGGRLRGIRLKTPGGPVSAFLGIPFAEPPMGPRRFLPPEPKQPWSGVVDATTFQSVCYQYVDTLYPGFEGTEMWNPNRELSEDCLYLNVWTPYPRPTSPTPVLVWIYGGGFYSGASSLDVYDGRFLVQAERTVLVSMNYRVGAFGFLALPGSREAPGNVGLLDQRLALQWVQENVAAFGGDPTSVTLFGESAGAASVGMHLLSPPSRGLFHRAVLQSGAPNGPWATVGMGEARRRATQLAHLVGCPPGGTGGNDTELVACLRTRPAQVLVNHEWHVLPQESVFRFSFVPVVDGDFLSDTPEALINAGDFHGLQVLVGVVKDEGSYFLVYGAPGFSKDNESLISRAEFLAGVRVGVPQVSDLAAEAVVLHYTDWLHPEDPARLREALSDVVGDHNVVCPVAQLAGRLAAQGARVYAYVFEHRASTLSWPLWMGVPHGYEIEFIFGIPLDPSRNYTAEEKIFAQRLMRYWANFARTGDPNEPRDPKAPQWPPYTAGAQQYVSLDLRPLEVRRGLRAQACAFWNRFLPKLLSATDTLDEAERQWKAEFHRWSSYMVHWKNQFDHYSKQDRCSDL
Sequence of Beta-secretase 1 (P56817 whole entry): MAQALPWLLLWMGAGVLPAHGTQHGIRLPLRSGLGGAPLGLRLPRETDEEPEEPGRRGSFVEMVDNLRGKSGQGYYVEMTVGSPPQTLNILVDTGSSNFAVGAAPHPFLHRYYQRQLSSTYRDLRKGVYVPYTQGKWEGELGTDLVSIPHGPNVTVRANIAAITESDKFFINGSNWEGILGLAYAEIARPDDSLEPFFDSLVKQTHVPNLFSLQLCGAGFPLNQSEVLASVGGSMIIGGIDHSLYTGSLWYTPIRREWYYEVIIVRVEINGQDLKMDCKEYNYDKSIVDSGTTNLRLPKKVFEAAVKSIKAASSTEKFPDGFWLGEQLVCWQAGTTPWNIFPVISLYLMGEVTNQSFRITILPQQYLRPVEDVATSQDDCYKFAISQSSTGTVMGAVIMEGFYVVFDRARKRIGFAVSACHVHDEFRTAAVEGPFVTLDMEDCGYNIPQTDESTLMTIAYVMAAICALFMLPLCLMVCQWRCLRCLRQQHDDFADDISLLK
Sequence of Amine oxidase [flavin-containing] B (P27338 whole entry): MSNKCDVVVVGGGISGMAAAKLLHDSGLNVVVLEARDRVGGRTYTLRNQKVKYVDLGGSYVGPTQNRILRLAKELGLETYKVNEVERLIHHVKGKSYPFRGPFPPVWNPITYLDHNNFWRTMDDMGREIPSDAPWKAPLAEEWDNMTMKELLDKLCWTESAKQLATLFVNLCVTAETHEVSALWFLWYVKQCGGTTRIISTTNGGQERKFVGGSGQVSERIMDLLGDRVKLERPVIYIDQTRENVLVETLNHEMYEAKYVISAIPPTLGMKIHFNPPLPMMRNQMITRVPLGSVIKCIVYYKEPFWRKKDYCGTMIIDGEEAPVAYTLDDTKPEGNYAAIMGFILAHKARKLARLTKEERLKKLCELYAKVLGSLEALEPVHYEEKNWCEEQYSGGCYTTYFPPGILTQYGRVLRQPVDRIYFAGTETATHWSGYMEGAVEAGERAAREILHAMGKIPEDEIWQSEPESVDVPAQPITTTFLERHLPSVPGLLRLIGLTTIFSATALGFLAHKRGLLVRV
Sequence of Cholinesterase (P06276 whole entry, the tested form may be a part): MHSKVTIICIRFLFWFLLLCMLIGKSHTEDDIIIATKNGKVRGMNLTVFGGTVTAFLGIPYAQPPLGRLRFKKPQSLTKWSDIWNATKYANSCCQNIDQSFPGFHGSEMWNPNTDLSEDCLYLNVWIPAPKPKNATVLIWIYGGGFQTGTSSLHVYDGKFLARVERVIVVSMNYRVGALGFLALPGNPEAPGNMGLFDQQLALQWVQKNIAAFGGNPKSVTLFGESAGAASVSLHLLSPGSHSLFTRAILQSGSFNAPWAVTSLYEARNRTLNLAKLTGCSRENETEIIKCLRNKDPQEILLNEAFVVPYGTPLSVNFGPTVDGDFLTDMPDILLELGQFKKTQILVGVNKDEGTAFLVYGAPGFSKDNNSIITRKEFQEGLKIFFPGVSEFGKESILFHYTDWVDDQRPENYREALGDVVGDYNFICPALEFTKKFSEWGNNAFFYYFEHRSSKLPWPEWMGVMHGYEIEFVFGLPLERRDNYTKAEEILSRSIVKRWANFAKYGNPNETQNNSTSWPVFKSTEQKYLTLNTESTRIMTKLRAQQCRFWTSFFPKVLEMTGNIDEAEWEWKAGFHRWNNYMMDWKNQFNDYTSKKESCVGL
Description for SMMC-7721: Antiproliferative activity against human SMMC-7721 cells assessed as reduction in cell viability measured for 72 hrs by MTT assay

Broadly, the IC50 is the concentration that gives 50% inhibition. `O=c1oc2cc(O)ccc2cc1-c1cc(Br)cs1`: the IC50 in [1] is 140 nM. As usually defined, the GI50 is the concentration at which growth is held to half of that of the control. In the data set with A549, `CCOC(=O)c1c(/N=C/c2ccc(Br)cc2)sc2c1CCCC2` returned a GI50 of 8040 nM. Turning to `NC(=S)N/N=C(\C=C\c1ccc(Cl)cc1Cl)c1cccs1`, in the data set on Escherichia coli, the “inhibition zone (IZ)” value is 15 mm. Consider `N#CC(C#N)=NNc1sc2c(c1C1=NC(=O)C(Cc3ccc(Cl)cc3)S1)CCCC2` (centres undefined), for which the IC50 in the data set with HONE1 cell line, in the data set on MCF7 [2], with DLD-1, in the data set on NUGC-3, in the data set with HepG2 [3] and with HA22T cell line was 59 nM throughout. Also, in data set [4], the IC50 at 24 h stood at 59 nM. Consider `O=C(NNC(=S)Nc1ccccc1[N+](=O)[O-])c1sccc1Cl`, for which the IC50 at Acetylcholinesterase [5] turned out to be 400 nM; against Cholinesterase, 1900 nM. Turning to `Cc1cc2ccc(O)cc2n(NC(=O)c2sc3cc(F)ccc3c2N)c1=O`, the values for the zone of inhibition at 100 µg/mL in the data set with Salmonella paratyphi, in the data set with Aspergillus niger and with Staphylococcus aureus [7] were 22 mm, 26 mm and 23 mm, respectively. Also, in the data set on Bacillus subtilis [6], the “inhibition zone (IZ)” value was found to be 25 mm. `O=C(Nc1ccsc1C(=O)N/N=C/c1ccc(F)cc1)c1ccc(Cl)cc1Cl` yielded an IC50 with SMMC-7721 of 320 nM. As to `CN1CCN(CC(=O)Nc2sc3c(c2C#N)CCC(C(C)(C)C)C3)CC1` (centres undefined), the IC50 in data set [8] is 680 nM; with MIA PaCa-2, 13400 nM. For `Clc1ccccc1CN1CCc2sccc2C1` [TICLOPIDINE], the half-life in the data set “clinical” is 7.9 h. As for `O=C1S/C(=C\c2cccc(Cl)c2Cl)C(=O)N1Cc1nnc(-c2cccs2)o1`, in the data set with MCF7 [9], the IC50 amounted to 4.83 µg/mL (≈ 11 µM). Regarding `CCN[C@H]1C[C@H](C)S(=O)(=O)c2sc(S(N)(=O)=O)cc21` [DORZOLAMIDE], the t1/2 in data set [10] amounted to 4 months.

Turning to `COC(=O)c1cc(C)cc2sc3cccc(OC)c3c12`, the IC50 on Beta-secretase 1 amounted to 600 nM.

Turning to `Cc1cc2c(s1)Nc1ccccc1N=C2N1CCN(C)CC1` [OLANZAPINE], the half-life in data set [11] was 21 h.

As to `COC(=O)[C@H](c1ccccc1Cl)N1CCc2sccc2C1` [CLOPIDOGREL], in data set [12], the half-life was 6 h. For `CN1CCC(=C2c3ccccc3CC(=O)c3sccc32)CC1` [KETOTIFEN], the half-life in data set [13] is 3 h.

In the case of `COc1cccc(/C=N/NC(=O)c2cccs2)c1O`, the IC50 in the data set with OVCAR-8, in the data set with SF-295, in the data set on HL-60 and with HCT-116 was 820 nM each time. In the case of `CC(=O)c1c(Nc2ccc(C)cc2)sc(-c2nc3ccccc3c(=O)n2-c2ccc(Cl)cc2)c1C`, the figures for the Activity in the data set on Rattus norvegicus [14] and in the data set with Rattus norvegicus [15] were 58.6% and 48.94%, respectively. For `CCOC(=O)c1c(Nc2ccccc2)sc(Cc2ccc(-n3cnnn3)cc2)c1N`, the IC50 with Streptococcus pneumoniae [16] worked out at 9.83 µg/mL (≈ 23.4 µM); with Staphylococcus aureus [17], 7.62 µg/mL (≈ 18.1 µM). `CCN[C@H]1CN(CCCOC)S(=O)(=O)c2sc(S(N)(=O)=O)cc21` [BRINZOLAMIDE] showed a half-life in [18] of 111 h. Consider `CCCN(CCc1cccs1)[C@H]1CCc2c(O)cccc2C1` [ROTIGOTINE], for which the half-life in [19] was 7 h. Consider `COc1ccc(C2=NNC(=O)c3c(sc(C(N)=O)c3C)N2)cc1`, for which the IC50 in the data set with HepG2 [20] came to 4.37 µg/mL (≈ 13.2 µM). In the case of `NC1=C(C(=O)Nn2c(=O)cc(-c3ccccc3)c3ccc(O)cc32)SCC1`, the zone of inhibition at 100 µg/mL with Penicillium chrysogenum turned out to be 27 mm. For `FC(F)(F)c1cccc(-c2cc(-c3cccs3)n(-c3ccc(Br)cc3)n2)c1`, at Acetylcholinesterase [21], 0.48 nM corresponded to half-maximal inhibition (IC50). Regarding `NC(N)=NCCC[C@@H](N)C(=O)N[C@@H](CCCN=C(N)N)C(=O)N1CCC[C@H]1C(=O)N1C[C@H](O)C[C@H]1C(=O)NCC(=O)N[C@@H](Cc1cccs1)C(=O)N[C@@H](CO)C(=O)N1Cc2ccccc2C[C@@H]1C(=O)N1[C@H](C(=O)N[C@@H](CCCN=C(N)N)C(=O)O)C[C@@H]2CCCC[C@@H]21` [ICATIBANT], the half-life in data set [22] was 1.4 h. As to `CCCCc1ncc(/C=C(\Cc2cccs2)C(=O)O)n1Cc1ccc(C(=O)O)cc1` [EPROSARTAN], the half-life in data set [23] was 5 h. As to `O=C(NC[C@H]1CN(c2ccc(N3CCOCC3=O)cc2)C(=O)O1)c1ccc(Cl)s1` [RIVAROXABAN], in data set [24], the half-life was 5 h. Consider `CCOC(=O)c1c(Nc2ccccc2)sc(C2=CN3NCC=C3N2)c1-c1ccccc1`, for which the “inhibition zone (IZ)” value in the data set with Streptococcus pneumoniae [25] is recorded as 12.3 mm; in the data set with Bacillus subtilis [26], 12.7 mm.
